One experiment relates to S. aureus (340). The experiment can be described thus: MIC determination by microplate dilution, S. aureus animal strain. The format is cell-based, Staphylococcus aureus. The following applies: Staphylococcus aureus, Gram-positive, Mueller-Hinton medium, 24 h, 37° C. As for the experimental part:
(§1) 1) Preparation of the Preculture
(§2) A negative control (2 mL of sterile culture medium)
(§3) A positive control (1940 μL of culture medium+40 μL of DMSO+20 μL of bacterial suspension) from a thawed biological strain (the biological strains are stored at −80° C. in glycerol).
(§4) The tubes were incubated at 37° C. for 24 hours at 100 rpm.
(§5) The microorganisms were handled under a type L2 laboratory fume cupboard and, before any handling, a UV cycle was programmed and only sterile material was used. […] The chemical compounds to be tested were prepared in a DMSO/methanol mixture (50/50) at a concentration of 5 mg/mL.
(§6) 2) Preparation of the Microplate for the Determination of the Minimum Inhibitory Concentration (MIC)
(§7) After 24 hours of incubation, a measurement of the optical density was taken using a spectrophotometer at 600 nm, collecting 100 μL of the bacterial suspension diluted in 900 μL of the sterile culture medium. This test required the use of a 96-well plate and the required volume of the microbial suspension to be seeded was calculated for an OD corresponding to a value equal to 0.01 in each well. In this plate, the first line corresponded to the negative control (195 μL of sterile culture medium in each well), the second line to the positive control (seeded culture medium supplemented with 2% of DMSO), the third line was loaded twice with bacterial suspension, 8 μL of test product were placed in each well. Thereafter, a 0.5 cascade dilution was performed from this line.
(§8) The first column served as inhibition control. A sterile filter was then placed on the microplate, allowing the passage of gases but not of contaminants. The microplate was incubated at 37° C. under a humid atmosphere for 24 hours.
(§9) NB: The medium used is Mueller-Hinton (MH) medium for bacteria. All the tests were performed in duplicate.
(§10) 4) Reading of the Results
(§11) After incubation, the filter was replaced with a transparent film, and an OD reading was then taken in an iEMS plate spectrophotometer at 620 nm. Calculation of the minimum inhibitory concentration (MIC) was performed.

A further experiment relates to S. intermedius (1051997). The experiment can be described thus: MIC determination by microplate dilution, S. intermedius animal strain. The conditions noted are these: Staphylococcus intermedius, Gram-positive, Mueller-Hinton medium, 24 h, 37° C. The class given is cell-based, Staphylococcus intermedius. The method, then: as §1, §2, §3, §4, §5, §6, §7, §8, §9, §10, §11

The test system of the next experiment is E. coli ATCC28922. The experiment is described as follows: MIC determination by microplate dilution, E. coli human strain. The class given is cell-based, Escherichia coli. The following applies: Escherichia coli, ATCC28922, Gram-negative, Mueller-Hinton medium, 24 h, 37° C. The method, then:
as §1, §2, §3, §4, §5, §6, §7, §8, §9, §10, §11

The subject of the next experiment is E. coli (1956). The experiment can be described thus: MIC determination by microplate dilution, E. coli animal strain. The class given is cell-based, Escherichia coli. The conditions noted are these: Escherichia coli, Gram-negative, Mueller-Hinton medium, 24 h, 37° C. As for the experimental part:
as §1, §2, §3, §4, §5, §6, §7, §8, §9, §10, §11

Experiment [1] relates to P. aeruginosa (1051575). The experiment can be described thus: MIC determination by microplate dilution, P. aeruginosa animal strain. The conditions noted are these: Pseudomonas aeruginosa, Gram-negative, Mueller-Hinton medium, 24 h, 37° C. The format is cell-based, Pseudomonas aeruginosa. As for the experimental part:
as §1, §2, §3, §4, §5, §6, §7, §8, §9, §10, §11

The next experiment relates to CHO-K1 cells. The experiment is described as follows: WST1 cytotoxicity test on CHO-K1 cells. The format is cell-based, Chinese hamster. The conditions noted are these: Cricetulus griseus, read-out: IC50 (μg/mL) CHO. As for the experimental part: Test WST1 was used to measure the cytotoxic activity of the products. This is a colorimetric test which makes it possible to measure the viability and the degree of cell proliferation. It is based on cleavage of the colorless tetrazolium salts WST-1 (4-[3-(4-iodophenyl)-2-(4-nitrophenyl)-2H-5-tetrazolio]-1,3-benzene disulfonate) with mitochondrial dehydrogenases to the yellow-colored formazan derivative, which may be quantified by spectrophotometry at 420-480 nm.
The WST1 test was performed on Chinese hamster ovary cells. The CHO-K1 cells (ATCC, USA) are kept in culture on McCoy's 5A medium supplemented with 10% fetal calf serum, 2 mM of L-glutamine and a mixture of penicillin-streptomycin (100 U/ml: 10 μg/mL). The culture is incubated at 37° C. under an atmosphere enriched in CO2 (5%), and subcultured every two days.
The cells are transferred into 96-well plates (25 000 cells/mL) in whole McCoy's 5A medium, and maintained for 24 hours at 37° C. under a humid atmosphere enriched in CO2 (5%). Increasing concentrations of test products are added to the wells in double tests and 8 growth controls containing the cells in the medium alone are included in each series of tests. After 24 hours at 37° C. (5% CO2), the culture medium is removed, the cells are rinsed in phosphate buffer (PBS) and 50 μL of PBS containing 10% of reagent WST1 are added to each well. After 20 minutes of incubation at 37° C., the results are read by spectrophotometry at 450 nm.
The results are expressed in dose-response relationships, modeled by nonlinear regression analysis using the TableCurve software. The 50% inhibitory concentration (IC50) represents the concentration of product that is capable of reducing the cell viability by 50%.
(Formazan colour is commonly taken as a measure of viable cells.)

The subject of experiment [2] is P. aeruginosa (1051575). The experiment is described as follows: Potentiation of the doxycycline activity at 2 μg/mL. The format is cell-based, Pseudomonas aeruginosa. The conditions noted are these: in combination with doxycycline 2 μg/mL; 24 h, 37°.
Another experiment relates to S. aureus ATCC25923. The experiment can be described thus: MIC determination by microplate dilution, S. aureus human strain. The format is cell-based, Staphylococcus aureus. The following applies: Staphylococcus aureus, ATCC25923, Gram-positive, Mueller-Hinton medium, 24 h, 37° C. As for the experimental part:
as §1, §2, §3, §4, §5, §6, §7, §8, §9, §10, §11

The test system of a further experiment is E. faecalis ATCC29212. The experiment is described as follows: MIC determination by microplate dilution, E. faecalis human strain. The class given is cell-based, Enterococcus faecalis. The following applies: Enterococcus faecalis, ATCC29212, Gram-positive, Mueller-Hinton medium, 24 h, 37° C. The method, then: as §1, §2, §3, §4, §5, §6, §7, §8, §9, §10, §11

For another experiment, the system named is P. aeruginosa ATCC27853. The experiment is described as follows: MIC determination by microplate dilution, P. aeruginosa human strain. The format is cell-based, Pseudomonas aeruginosa. The following applies: Pseudomonas aeruginosa, ATCC27853, Gram-negative, Mueller-Hinton medium, 24 h, 37° C. The method, then:
as §1, §2, §3, §4, §5, §6, §7, §8, §9, §10, §11

The mark [3] stands for this setting: Table III, WST1, CHO-K1 cells, 24 h, concentration reducing cell viability by 50%.

In brackets after ≈: the same amount, converted by molar mass. Read-outs that look alike come from different tables or passages of the source.

One may read the MIC as the lowest concentration found to suppress growth. Low readings indicate greater potency, high ones weaker potency. `COC(=O)CC[C@@H](C)[C@H]1CCC2C3CCC4C[C@@H](NCCCNCCCN)CC[C@]4(C)C3CC[C@@]21C` (stereo partly drawn) [(18), methyl 3β-norspermidinolithocholate]: the MIC in the experiment with S. aureus (340) came to 0.7 µg/mL (≈ 1.39 µM); with S. intermedius (1051997), 0.7 µg/mL (≈ 1.39 µM); in the experiment on E. coli ATCC28922 it was 32 µg/mL (≈ 63.5 µM); in the experiment on E. coli (1956), 3 µg/mL (≈ 5.95 µM); in the experiment on P. aeruginosa (1051575) [1], 3 µg/mL (≈ 5.95 µM). The IC50 in the experiment with CHO-K1 cells (CHO-K1, 24 h) turned out to be 80 µg/mL (≈ 159 µM). In addition, in the experiment on P. aeruginosa (1051575) [2], the “MIC - P. aeruginosa (1051575): content of compound of formula (I) to restore the doxycycline activity (at 2 μg/mL)” value (shortened to “MIC - P. aeruginosa (1051575): content”) worked out at 3 µg/mL.
Consider `CC(C)OC(=O)CC[C@@H](C)[C@H]1CCC2C3C(CC[C@@]21C)[C@@]1(C)CC[C@H](NCCNCCNCCNCCNCCN)CC1C[C@@H]3O` (stereo partly drawn) [(24), isopropyl 3β-(pentaethylenehexamine)ursodeoxycholate], for which the MIC in the experiment with S. aureus (340) turned out to be 32 µg/mL (≈ 49.3 µM); against S. intermedius (1051997), 8 µg/mL (≈ 12.3 µM); in the experiment on E. coli (1956), 65 µg/mL (≈ 100 µM); against P. aeruginosa (1051575) [1], 130 µg/mL (≈ 200 µM).
Regarding `COC(=O)CC[C@@H](C)[C@H]1CCC2C3CCC4C[C@@H](NCCNCCNCCNCCNCCN)CC[C@]4(C)C3CC[C@@]21C` (stereo partly drawn) [(25), methyl 3β-(pentaethylenehexamine)lithocholate], the MIC in the experiment with S. aureus ATCC25923 was determined as 8 µg/mL (≈ 13.2 µM); in the experiment on S. aureus (340), 8 µg/mL (≈ 13.2 µM); in the experiment with S. intermedius (1051997), 4 µg/mL (≈ 6.61 µM); against E. faecalis ATCC29212, 15 µg/mL (≈ 24.8 µM); in the experiment on E. coli ATCC28922 it was 30 µg/mL (≈ 49.6 µM); with E. coli (1956), 30 µg/mL (≈ 49.6 µM). The MIC against P. aeruginosa ATCC27853 and in the experiment on P. aeruginosa (1051575) [1] was 60 µg/mL (≈ 99.2 µM) throughout. In addition, in the experiment with CHO-K1 cells (setting [3]), the IC50 worked out at 76 µg/mL (≈ 126 µM).
`COC(=O)CC[C@@H](C)[C@H]1CCC2C3C(C[C@H](O)[C@@]21C)[C@@]1(C)CC[C@H](NCCCN(C)CCCN)C[C@H]1C[C@H]3O` (stereo partly drawn) [(33), methyl 3β-(bis(3-aminopropyl)methylamine)cholate]: the MIC against S. aureus ATCC25923 turned out to be 14 µg/mL (≈ 25.5 µM); against S. aureus (340), 14 µg/mL (≈ 25.5 µM); in the experiment on S. intermedius (1051997) it was 14 µg/mL (≈ 25.5 µM); in the experiment on E. faecalis ATCC29212, 14 µg/mL (≈ 25.5 µM); with E. coli ATCC28922, 27 µg/mL (≈ 49.1 µM); against E. coli (1956), 50 µg/mL (≈ 90.9 µM). Also, the minimal inhibitory concentration (MIC) against P. aeruginosa ATCC27853 amounted to 27 µg/mL (≈ 49.1 µM); with P. aeruginosa (1051575) [1] it was 50 µg/mL (≈ 90.9 µM). Further, in the experiment on CHO-K1 cells (setting [3]), the IC50 worked out at 126 µg/mL (≈ 229 µM).
Take `CC(C)OC(=O)CC[C@@H](C)[C@H]1CCC2C3C(C[C@H](O)[C@@]21C)[C@@]1(C)CC[C@H](NCCN(CCN)CCN)CC1C[C@H]3O` (stereo partly drawn) [(35), isopropyl 3β-(tris(2-aminoethyl)amine)cholate]: the MIC in the experiment on S. aureus ATCC25923 came to 28 µg/mL (≈ 48.4 µM); with S. intermedius (1051997), 14 µg/mL (≈ 24.2 µM); against E. faecalis ATCC29212 it was 28 µg/mL (≈ 48.4 µM); against E. coli ATCC28922, 28 µg/mL (≈ 48.4 µM); against E. coli (1956) it was 56 µg/mL (≈ 96.7 µM); in the experiment with P. aeruginosa ATCC27853, 56 µg/mL (≈ 96.7 µM). This molecule came in with a minimal inhibitory concentration (MIC) in the experiment with P. aeruginosa (1051575) [1] of 56 µg/mL (≈ 96.7 µM). Also, the “MIC - P. aeruginosa (1051575): content” value in the experiment on P. aeruginosa (1051575) [2] stood at 7 µg/mL.
Consider `CC(C)OC(=O)CC[C@@H](C)[C@H]1CCC2C3C(CC[C@@]21C)[C@@]1(C)CC[C@H](NCCCN(CCCN)CCCN)CC1C[C@@H]3O` (stereo partly drawn) [(42), isopropyl 3β-(tris(3-aminopropyl)amine)ursodeoxycholate], for which the MIC with S. aureus (340) came to 30 µg/mL (≈ 49.6 µM); in the experiment with S. intermedius (1051997), 15 µg/mL (≈ 24.8 µM); against E. coli (1956), 120 µg/mL (≈ 198 µM); with P. aeruginosa (1051575) [1] it was 60 µg/mL (≈ 99.2 µM). For the same molecule, the “MIC - P. aeruginosa (1051575): content” value with P. aeruginosa (1051575) [2] was determined as 4 µg/mL.

The values are drawn from patent publication US20190255073A1, “ESTERS OF 3-POLYAMINE DERIVATIVES OF BILE ACIDS FOR THE TREATMENT OF INFECTIONS” (VIRBAC, priority 2016, published 2019).
